The values below come from US12162878B2 (HINOVA PHARMACEUTICALS INC., priority 2018, dated 2024).

One assay concerns the target BRD4(1,2) (Homo sapiens (Human), UniProt O60885). Description: HTRF binding of compounds on BRD4 (D1+D2). The conditions noted are these: read-out: IC50 against BRD4(1,2). The text has this: Homogeneous time-resolved fluorescence technology (HTRF) was used to determine the binding effect of compounds on BRD4 (D1+D2) and BRDT (D1) proteins, as well as AlphaScreen method was used to detect the binding effect of compounds on BRD2 (D1+D2) and BRD3 (D1+D2) proteins.
The compounds were screened in vitro, and each compound was serially diluted to 10 concentrations. Four proteins BRD4 (D1+D2), BRDT (D1), BRD2 (D1+D2) and BRD3 (D1+D2) were chosen to determine the IC50 values of compounds (see Table 1).
4. Compound treatment: The test compound was dissolved in dimethyl sulfoxide (DMSO), and the storage concentration was 10 mM.
5. Steps for Homogeneous Time-Resolved Fluorescence Detection:
1) According to the arrangement of the detection plate, all compounds were diluted in Echo plate.
The final dilution concentration of DMSO is 0.1%.
2) The compound or DMSO was transferred to a 384-well detection plate with the Echo automatic sampler.
3) Two-fold concentration of the mixture of protein and peptide was added to the detection plate.
4) Two-fold concentration of mixed detection solution was added to the test plate, and shaken for 30 s.
5) Incubating for 2 h at room temperature.
6) Fluorescence signal was read on Envision multi-function microplate reader (excitation light wavelength being 340 nm, and emission light wavelength being 615 nm and 665 nm).
The experimental data were recorded in an Excel file, and equation (1) was used to obtain the inhibition rate. Inh%=(Max−Signal)/(Max−Min)*100 Equation (1):
The obtained data was recorded in GraphPad software, and equation (2) was used to provide the IC50 values. Y=Bottom+(Top−Bottom)/(1+10^((Log IC50−X)*Hill Slope)) Equation (2): […]
Y axis was the inhibition rate, and X axis was the compound concentration.
A general note: In TR-FRET formats the signal depends on donor and acceptor labels being close together.

Another assay deals with MCF-7 cells. Description: Inhibition of proliferation of MCF-7 cells (CCK-8). Format: cell-based, human. The conditions noted are these: for pIC50: Homo sapiens, MCF7, 144 h, 6 days, CCK-8. The procedure: • MCF-7 cell line (Cell Bank of Chinese Academy of Sciences, TCHu74) • FBS (Gibco, Cat. No. 10099-141) • 0.01M PBS (Biosharp, Cat. No. 162262) • RIPM1640 (Hyclone, Cat. No. 308090.01) • Penicillin-Streptomycin (Hyclone, Cat. No. SV30010) • Cell counting kit-8 (Signalway Antibody, Cat. No. CP002) • DMSO (Sigma, Cat. No. D5879) • Centrifuge Tube, 15 ml (Excell Bio, Cat. No. CS015-0001) • Cell Culture Dish, (Excell Bio, Cat. No. CS016-0128) • 96-well cell culture cluster (Corning, Cat. No. 3599) 3. Experimental Method
1) MCF-7 cells were subcultured in cell culture media, and the cells in good growth condition were seeded in a 96-well plate, 80 μL for each well, thus the number of cells per well was 1000, then the plate was cultured overnight in a 37° C., 5% CO2 cell incubator.
(§1) 2) The drug was prepared with dimethyl sulfoxide (DMSO) as a 10 mM stock solution. Prior to use, the solution was diluted 3 times with DMSO, and then diluted with a 3-fold gradient to obtain 9 concentration gradients. Then, each concentration of the compound was further diluted 200 times with the culture media (to ensure that DMSO concentration in the culture system was 0.1%), 2 repeat wells for each concentration. The diluted solution of each compound (20 μL) was added to the cell culture well (with a final concentration of 10 μM, 3.3 μM, 1.1 μM . . . ), and shaken gently for mixing.
In addition, three negative control wells containing only cells and three blank control wells containing only culture medium (20 μL DMSO diluted 200 times with culture medium being added to six wells) were included.
(§2) (1) After culturing for 6 days, 10 μL CCK-8 was added to each well and cultured for additional 2.5 h in a 37° C., 5% CO2 cell incubator.
(§3) (2) The absorbance (OD value) at 450 nm was measured with a multifunctional microplate reader.
(§4) (3) The data was analyzed by the Dose-response-inhibition equation in the software GraphPad Prism6, and the IC50 value was obtained.

The test system of a further assay is MDA-MB-453 cells. Nature of the assay: Inhibition of proliferation of MDA-MB-453 cells (CCK-8). Format: cell-based, human. The conditions noted are these: for pIC50: Homo sapiens, 144 h, 6 days, CCK-8. The procedure:
• MDA-MB-453 cell line (Cell Bank of Chinese Academy of Sciences, TCHu35) • FBS (Gibco, Cat. No. 10099-141) • 0.01M PBS (Biosharp, Cat. No. 162262) • RIPM1640 (Hyclone, Cat. No. 308090.01) • Penicillin-Streptomycin (Hyclone, Cat. No. SV30010) • Cell counting kit-8 (Signalway Antibody, Cat. No. CP002) • DMSO (Sigma, Cat. No. D5879) • Centrifuge Tube, 15 ml (Excell Bio, Cat. No. CS015-0001) • Cell Culture Dish, (Excell Bio, Cat. No. CS016-0128) • 96-well cell culture cluster (Corning, Cat. No. 3599) 3. Experimental Method
1) MDA-MB-453 cells were subcultured in cell culture media, and the cells in good growth condition were seeded in a 96-well plate, 80 μL for each well, thus the number of cells per well was 1500, then the plate was cultured overnight in a 37° C., 5% CO2 cell incubator.
as §1, with “mixing. In addition, three negative control wells containing only cells and three blank control wells containing only culture medium (20 μL DMSO diluted 200 times with culture medium being added to six wells) were included.” for “mixing.”
as §2, §3, §4

pIC50: −log10 of the molar value.

`[2H]C([2H])([2H])n1cc(-c2cc(NS(=O)(=O)CC)ccc2N2CCC3(CC2)CC3)c2cc[nH]c2c1=O` [Compound 41]: the pIC50 was 7.85 at BRD4(1,2), 7.27 with MCF-7 cells and 7.05 in the assay with MDA-MB-453 cells.
In turn, `[2H]C([2H])([2H])n1cc(-c2cc(S(=O)(=O)CC)ccc2N2CCC3(CC3)C2)c2cc[nH]c2c1=O` [Compound 55, 4-(5(ethylsulfonyl)-2-(5-aza-spiro[2.4]heptan-5-yl)phenyl)-6-trideuteromethyl-1H-pyrrolo[2,3-c]pyridin-7(6H)-one] gave a negative logarithm of the IC50 (pIC50) in the assay on MCF-7 cells of 7.00. Besides, in the assay on MDA-MB-453 cells, the “inhibitory action on MDA-MB-453 cells (in words)” value is listed as “effective inhibitory action” and the pIC50 was 7.32.
Consider `[2H]C([2H])([2H])n1cc(-c2cc(S(C)(=O)=O)c(F)cc2N2CCC3(CC2)CC3(F)F)c2cc[nH]c2c1=O` [Compound 219, 4-(2-(1,1-difluoro-6-aza-spiro[2.5]octan-6-yl)-4-fluoro-5-(methylsulfonyl)phenyl)-6-trideuteromethyl-1H-pyrrolo[2,3-c]pyridin-7(6H)-one], for which the pIC50 on BRD4(1,2) is 7.92.
Regarding `[2H]C([2H])([2H])n1cc(-c2cc(S(C)(=O)=O)ccc2N2CCC3(CC2)CC3(F)F)c2cc[nH]c2c1=O` [Compound 184, 4-(2-(1,1-difluoro-6-aza-spiro[2.5]octan-6-yl)-5-(methylsulfonyl)phenyl)-6-trideuteromethyl-1H-pyrrolo[2,3-c]pyridin-7(6H)-one], the results for the negative-log IC50 (pIC50) on BRD4(1,2), in the assay with MCF-7 cells and in the assay on MDA-MB-453 cells were 8.16, 7.85 and 6.36, respectively. Moreover, in the assay on MCF-7 cells, the “inhibitory action on MCF-7 cells (in words)” value is on record as “effective inhibitory action”.

By pIC50 is commonly meant the negative decadic logarithm of the IC50, by convention in mol/L.
